As usually defined, the MIC is the least concentration at which growth counts as inhibited. As usually defined, the half-life is how long it takes for the measured level to halve.

The structures appear in SMILES notation. ≈ marks a conversion by molar mass, not a printed value.

The subject of series [1] is Escherichia coli. Put plainly: Antibacterial activity against Escherichia coli CFT 073 assessed as bacterial growth inhibition measured after 20 hrs by microdilution assay. The series is classed as functional.
Series [2] relates to Escherichia coli. As to the kind of experiment: Antibacterial activity against Escherichia coli UTI 189 assessed as bacterial growth inhibition measured after 20 hrs by microdilution assay. The series is classed as functional. (In general: Broth dilution looks for growth in wells or tubes with falling amounts of substance.)
The subject of series [3] is Staphylococcus aureus. Put plainly: Antibacterial activity against clinical isolate methicillin resistant Staphylococcus aureus ATCC 43300 assessed as bacterial growth inhibition measured after 18 to 20 hrs by broth microdilution assay. The series is classed as functional. As to conditions: time 18-20 hrs.
Series [4] concerns Staphylococcus aureus. Put plainly: Antibacterial activity against clinical isolate methicillin resistant Staphylococcus aureus ATCC 33591 assessed as bacterial growth inhibition measured after 18 to 20 hrs by broth microdilution assay. The class given is functional. As to conditions: time 18-20 hrs.
The subject of series [5] is Staphylococcus aureus. Put plainly: Antibacterial activity against clinical isolate methicillin sensitive Staphylococcus aureus ATCC 29213 assessed as bacterial growth inhibition measured after 18 to 20 hrs by broth microdilution assay. The class given is functional. Conditions: time 18-20 hrs.
The nature of series [6]: Microsomal stability in mouse plasma assessed as half life measured upto 60 mins in presence of NADPH by HPLC analysis. The class given is ADME, cell-free.
Series [7] relates to Staphylococcus aureus. As to the kind of experiment: Antibacterial activity against methicillin resistant Staphylococcus aureus clinical isolate 18-2 assessed as bacterial growth inhibition measured after 18 to 20 hrs by broth microdilution assay. Conditions: time 18-20 hrs. The series is classed as functional.
Series [8] has as its system Staphylococcus aureus. Put plainly: Antibacterial activity against clinical isolate vancomycin intermediate resistant Staphylococcus aureus ATCC 700699 assessed as bacterial growth inhibition measured after 18 to 20 hrs by broth microdilution assay. The series is classed as functional. As to conditions: time 18-20 hrs.
The test system of series [9] is Staphylococcus aureus. As to the kind of experiment: Antibacterial activity against clinical isolate vancomycin intermediate resistant Staphylococcus aureus HIP 5836 assessed as bacterial growth inhibition measured after 18 to 20 hrs by broth microdilution assay. The class given is functional. Conditions: time 18-20 hrs.
Series [10] relates to Staphylococcus aureus. Put plainly: Antibacterial activity against methicillin sensitive Staphylococcus aureus clinical isolate 18-3 assessed as bacterial growth inhibition measured after 18 to 20 hrs by broth microdilution assay. Conditions: time 18-20 hrs. The series is classed as functional.
Series [11] in a line: Microsomal stability in mouse liver microsomes assessed as half life measured upto 60 mins in presence of NADPH by HPLC analysis. The class given is ADME, Microsome. A general note: Liver microsomes are vesicles of endoplasmic reticulum, rich in cytochrome P450 enzymes.
The test system of series [12] is Staphylococcus aureus. Put plainly: Antibacterial activity against methicillin sensitive Staphylococcus aureus clinical isolate 15 assessed as bacterial growth inhibition measured after 18 to 20 hrs by broth microdilution assay. The class given is functional. As to conditions: time 18-20 hrs.
The test system of series [13] is Staphylococcus aureus. Put plainly: Antibacterial activity against clinical isolate methicillin sensitive Staphylococcus aureus BAA 1708 assessed as bacterial growth inhibition measured after 18 to 20 hrs by broth microdilution assay. The class given is functional. As to conditions: time 18-20 hrs.
Series [14] deals with Staphylococcus aureus. As to the kind of experiment: Antibacterial activity against clinical isolate vancomycin intermediate resistant Staphylococcus aureus HIP 5827 assessed as bacterial growth inhibition measured after 18 to 20 hrs by broth microdilution assay. The series is classed as functional. Conditions: time 18-20 hrs.
Series [15] has as its system Staphylococcus aureus. As to the kind of experiment: Antibacterial activity against clinical isolate methicillin sensitive Staphylococcus aureus BAA 976 assessed as bacterial growth inhibition measured after 18 to 20 hrs by broth microdilution assay. As to conditions: time 18-20 hrs. The series is classed as functional.
Series [16] relates to Staphylococcus aureus. As to the kind of experiment: Antibacterial activity against Staphylococcus aureus ATCC 29213 assessed as bacterial growth inhibition by broth microdilution assay. The series is classed as functional.
Series [17] relates to Escherichia coli. As to the kind of experiment: Antibacterial activity against Escherichia coli ATCC 25922 assessed as bacterial growth inhibition by broth microdilution assay. The class given is functional.
The test system of series [18] is Staphylococcus aureus. Put plainly: Antibacterial activity against Staphylococcus aureus ATCC 25923 assessed as bacterial growth inhibition measured after 16 hrs by broth microdilution assay. The class given is functional.
Series [19] deals with Staphylococcus aureus. As to the kind of experiment: Potency index, ratio of ciprofloxacin MIC to test compound MIC for antimicrobial activity against Staphylococcus aureus ATCC 25923 assessed as bacterial growth inhibition measured after 24 hrs by agar dilution assay. The series is classed as functional.

Take `O=C(NCCCCCC(=O)N1CCN(c2cc3c(cc2F)c(=O)c(C(=O)O)cn3C2CC2)CC1)c1cc(O)c(O)c(C(=O)N[C@H]2COC(=O)[C@@H](NC(=O)c3cccc(O)c3O)COC(=O)[C@@H](NC(=O)c3cccc(O)c3O)COC2=O)c1`: the MIC in the series with Escherichia coli [1] and with Escherichia coli [2] was 0.1 µg/mL (≈ 0.0877 µM) each time.

Regarding `CCCCCc1nc2ccccc2c(=O)n1NC(=O)c1c(O)c2ccccc2n(CC)c1=O`, the MIC in the series on Staphylococcus aureus [3], with Staphylococcus aureus [4], in the series with Staphylococcus aureus [5], in the series on Staphylococcus aureus [7], in the series with Staphylococcus aureus [8] and with Staphylococcus aureus [9] was 4 µg/mL (≈ 8.96 µM) in each case. Also, the MIC in the series on Staphylococcus aureus [10], in the series with Staphylococcus aureus [12], in the series with Staphylococcus aureus [13], in the series with Staphylococcus aureus [14] and in the series with Staphylococcus aureus [15] was 4 µg/mL (≈ 8.96 µM) each time. Also, the half-life in series [6] was 24.5 min; in series [11], over 373 min.

Regarding `O=C(O)c1cn(C2CC2)c2cc(N3CCN(Cc4nc5ccccc5c(=O)[nH]4)CC3)c(F)cc2c1=O`, the values for the MIC with Staphylococcus aureus [16] and in the series on Escherichia coli [17] were 0.031 µg/mL (≈ 0.0633 µM) and 0.25 µg/mL (≈ 0.511 µM), respectively.

In the case of `COc1cccc2ccc(C(=O)N3CCN(c4cc5c(cc4F)c(=O)c(C(=O)O)cn5C4CC4)CC3)nc12`, in the series on Staphylococcus aureus [18], the MIC came out at 0.2 µg/mL (≈ 0.387 µM). For the same compound, the Ratio with Staphylococcus aureus [19] was 2.

For the origin of these results see ChEMBL document CHEMBL5360532, “Current scenario of quinolone hybrids with potential antibacterial activity against ESKAPE pathogens” (Eur J Med Chem, 2023).
